Type in all cases: in vivo
Test [1] relates to tobacco plants expressing Pseudomonas fluorescens HPPD. The test is described as follows: Glasshouse spray test, Pseudomonas HPPD transgenic tobacco. The following applies: Pseudomonas HPPD T1. From the text: Tobacco plants expressing the wild-type HPPD gene of Pseudomonas fluorescens strain 87-79 under operable control of the double enhanced 35S CMV promoter region, Nos3′ terminator and TMV translational enhancer were provided as detailed in Example 4 of WO0246387.
Seed of wild-type tobacco plants, C2 tobacco plants and of the T1 progeny of a further Arabidopsis-HST expressing tobacco line, D2 were planted out in 3 inch pots, grown on, sprayed with compounds 1.1, 2.30 and 3.6 at the rates shown in table 5. Percent damage scores were assessed at 7 DAT. Aside from the presumptive non-transgenic segregants the D2 line containing the Arabidopis HST expression construct offered the highest level of tolerance to the two HST herbicides with the Psuedomonas HPPD, C2 line, offering only marginal tolerance under the conditions of this test.
(§1) Transgenic lines of tobacco, soyabean and corn etc. can be engineered to express various heterologous HPPDs derived from, for example Avena (SEQ ID #26), Wheat (SEQ ID #27), Pseudomonas fluorescens (SEQ ID # 25) and Shewanella colwelliana (SEQ ID #28) as, for example, described in WO 02/46387.
Single copy events amongst the T1 plant lines are identified by their 3:1 segregation ratio (wrt kanamycin and or herbicide) and by quantitative RT-PCR. Seed from the thus selected T1 tobacco (var Samsun) lines are sown in 3 inch diameter pots containing 50% peat, 50% John Innes soil no 3. After growth to the 3 leaf stage, plants are sprayed, as described above, in order to test for herbicide tolerance relative to like-treated non-transgenic tobacco plants.
Control tobacco plants and transgenic T1 plants expressing either the Pseudomonas or the wheat HPPD gene are sprayed at 37, 111, 333 and 1000 g/ha rates of HST inhibitors and, for example, compound 2.3.
Plants are assessed and scored for % damage at 16 DAT.

The subject of test [2] is tobacco plants expressing Wheat HPPD. The test is described as follows: Glasshouse spray test, wheat HPPD transgenic tobacco. The following applies: Wheat HPPD T1.
From the text: as §1
Single copy events amongst the T1 plant lines are identified by their 3:1 segregation ratio (wrt kanamycin and or herbicide) and by quantitative RT-PCR. Seed from the thus selected T1 tobacco (var Samsun) lines are sown in 3 inch diameter pots containing 50% peat, 50% John Innes soil no 3. After growth to the 3 leaf stage, plants are sprayed, as described above, in order to test for herbicide tolerance relative to like-treated non-transgenic tobacco plants. […]
Exactly as described in example 5 of WO 02/46387 the wheat HPPD gene sequence (Embl DD064495) is cloned behind an Arabidopsis Rubisco small subunit (SSU) promoter and in front of a nos gene terminator to produce an SSU Wheat HPPD nos expression cassette' which is cloned into a binary vector and transformed into tobacco to produce a population of 30-50 transgenic events.

In test [3] the test system is tobacco (var Samsun) plantlets on liquid culture medium. Nature of the test: HST + HPPD herbicide effects on tobacco seedlings on liquid culture medium. Particulars: for % Injury (bleaching), mesotrione by itself: 0.75% v/v DMSO, liquid culture, 20 DAT. On the procedure: In an alternative herbicide test procedure tobacco (var Samsun) plantlets germinated aseptically in agar made up in 1/3 strength Murashige and Skoog salts medium are transferred after 4 d to float on top of 2.9 ml of sterile liquid culture medium (half strength Murashige and Skoog medium containing 30 mM sucrose) in wells of 12 well plates. Test compounds are added at various doses and bleaching damage is assessed after 14-20 DAT. The plantlets are kept covered under clear perspex and grown at 18° C. (night) and 24° C. (day) under a 1611 day (˜500-900 umol/m^2), 8 h darkness regime Plantlets continue to grow and produce new tissue over the 14-20 DAT period but are bleached and grow less in the presence of controlling concentrations of herbicide.

The next test concerns weeds. The test is described as follows: Glasshouse weed control, HST inhibitors alone and with A22, post-emergence. Particulars: 14 DAT, single replicate. The method, boiled down: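 Weeds grown in glasshouse trays (24-27 C day, 18-21 C night, ~15 h photoperiod) and track-sprayed in 0.2% X77 at […], pre-emergence or post-emergence at about 7-12 d. HPPD inhibitor A22 applied at 2 g/ha alone or mixed with HST herbicides. Damage scored 0–100% at 14 DAT; synergy calculated by Colby formula.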

The structures appear in SMILES notation.

In the case of `CS(=O)(=O)c1ccc(C(=O)C2C(=O)CCCC2=O)c([N+](=O)[O-])c1` [Mesotrione, mesotrione, reference compound], the “% damage observed 16 DAT” value is given as 3% in test [1] (37 g/ha); 3% in test [1] (111 g/ha); 43% in test [1] (333 g/ha); 67% in test [1] (1000 g/ha); 0% in test [2] (37 g/ha); 2% in test [2] (111 g/ha). Besides, the entries for the “% damage observed 16 DAT” value in test [2] (333 g/ha) and in test [2] (1000 g/ha) were 0% and 13%, respectively. Further, in test [3] (lower dose of mesotrione used in the mixtures), the “damage by mesotrione alone” value is reported as “no visible damage”. The “% Injury (bleaching), mesotrione by itself” value in test [3] (mesotrione 0.0005 ppm) is 0%; in test [3] (mesotrione 0.001 ppm) it was 20%. In test [3] (mesotrione 0.001 ppm, 0.75% DMSO, liquid culture medium, 14 DAT), the “% bleaching, mesotrione by itself” value was 5%.

As to `O=c1c(-c2c(F)ccc(F)c2Cl)c(O)c2nccnc2n1CC(F)F` [Compound 2.3], the “% damage observed 16 DAT” value in test [1] (37 g/ha) is on record as 0%; in test [1] (111 g/ha) it was 3%; in test [1] (333 g/ha) it was 6%; in test [1] (1000 g/ha), 10%; in test [2] (37 g/ha), 0%; in test [2] (111 g/ha), 0%. The “% damage observed 16 DAT” value in test [2] (333 g/ha) is reported as 3%; in test [2] (1000 g/ha), 8%. Besides, the “% control score, Obs” value came to 20% in the test on weeds (BRAPL, 15.625 g/ha alone); 50% in the test on weeds (BRAPL, 62.5 g/ha alone); 70% in the test on weeds (BRAPL, 250 g/ha alone); 2% in the test on weeds (DIGSA, 15.625 g/ha alone); 35% in the test on weeds (DIGSA, 62.5 g/ha alone); 45% in the test on weeds (DIGSA, 250 g/ha alone). For the same molecule, the “% control score, Obs” value in the test with weeds (ECHCG, 15.625 g/ha alone) is 5%; in the test on weeds (ECHCG, 62.5 g/ha alone) it was 30%; in the test on weeds (ECHCG, 250 g/ha alone), 40%; with weeds (PANMI, 15.625 g/ha alone), 2%; with weeds (PANMI, 62.5 g/ha alone), 55%; with weeds (PANMI, 250 g/ha alone) it was 65%. Moreover, the “% control score, Obs” value in the test on weeds (SETFA, 15.625 g/ha alone) worked out at 5%; with weeds (SETFA, 62.5 g/ha alone), 40%; in the test on weeds (SETFA, 250 g/ha alone) it was 60%; with weeds (SIDSP, 15.625 g/ha alone), 10%; with weeds (SIDSP, 62.5 g/ha alone), 40%; in the test with weeds (SIDSP, 250 g/ha alone), 55%.

For the origin of these results see patent US20110173718A1, “HERBICIDE TOLERANT PLANTS” (SYNGENTA CROP PROTECTION, INC., priority 2008, published 2011).
